Experimental data reported in patent US11679107B2 (Eisai R&D Management Co., Ltd., priority 2018, dated 2023).
Like-named read-outs stand apart in the source and are kept apart here.

Assays:
SF3b complexes = molecular target: T1, SF3b complexes (Homo sapiens, UniProt O75533+Q7RTV0); test: Scintillation proximity assay (SPA) with [3H]-labelled pladienolide probe; format: binding; conditions: SF3B1 (WT); geometric mean; read-out: SPA-ATS GMean IC50 (nM) SF3B1 (WT)
T1 construct: endogenous in cells; host or cells: Nuclear extracts; A HeLa S3 extract preparation is described for the in vitro splicing assay
Procedure, shortened: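 SF3b complexes captured from nuclear extracts on anti-SF3B1 antibody SPA beads; test compounds pre-incubated 30 min before 2.5 nM [3H]-pladienolide probe added, then 30 min incubation. Bound probe read by scintillation; values from non-linear regression of concentration–response curves.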

[1] = test system: Ad2 variant pre-mRNAs spliced in HeLa S3 nuclear extracts; test: In vitro splicing assay (IVS), RT-qPCR of spliced product; format: biochemical; conditions: for IC50: geometric mean; for Ratio Ad2.1/2.2: ratio of IVS IC50 Ad2.1 to Ad2.2
Procedure, shortened: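 Ad2 variant pre-mRNA (2 ng) with FTZΔi control RNA in HeLa S3 nuclear extract (8 μg) was pre-incubated with compound or DMSO for 15 min at 30 °C. Splicing ran 90 min at 30 °C after adding 0.5 mM ATP, creatine phosphate and MgCl2. Spliced product was quantified by TaqMan RT-qPCR, normalized to DMSO, and curve-fitted.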

[2] = test system: NCI-H1568 cells (high MCL1); test: Cell proliferation and viability, CellTiter-Glo, 72 hours; format: cell-based; conditions: for GI50: geometric mean
Procedure, shortened: (§1)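 Cells grown in RPMI-1640 with 10% FBS (Panc line with added insulin and FBS to 15%) were exposed to an 11-point half-log dilution series, typically 10 μM-100 pM, at 0.1% final DMSO. After incubation at 37° C, 5% CO2, ATP content was measured by luminescence and normalized to a time-zero plate and DMSO wells.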

[3] = test system: Panc 05.04 cells (SF3b K700E mutant); test: as above; format: cell-based; conditions: for GI50: geometric mean
Procedure, shortened: as §1

[4] = Ad2.1 pre-mRNA substrate, read-out: qPCR-IVS-ATS GMean IC50 (nM) Ad2.1
[5] = Ad2.2 pre-mRNA substrate, read-out: qPCR-IVS-ATS GMean IC50 (nM) Ad2.2
[6] = 72 h, NCIH1568.1, -100% = cidal, 0% = static, 100% = uninhibited growth
[7] = NCI-H1568, read-out: CTGlo-ATS GMean GI50 (nM) 72 h NCIH1568.1, 72 h, NCIH1568.1
[8] = 72 h, PANC0504.1, -100% = cidal, 0% = static, 100% = uninhibited growth
[9] = Panc 05.04, read-out: CTGlo-ATS GMean GI50 (nM) 72 h PANC0504.1, 72 h, PANC0504.1
[10] = NCI-H1568, read-out: CTGlo-ATS GMean GI50 (nM) 72 h NCIH1568.1, NCIH1568.1 cells, 72 h
[11] = NCIH1568.1 cells, 72 h, −100% cidal, 0% static, 100% maximal growth
[12] = PANC0504.1 cells, 72 h, −100% cidal, 0% static, 100% maximal growth
[13] = Panc 05.04, read-out: CTGlo-ATS GMean GI50 (nM) 72 h PANC0504.1, PANC0504.1 cells, 72 h

| Compound | IC50 (SF3b complexes) [nM] | IC50 [1, 4] [nM] | IC50 [1, 5] [nM] | Ratio Ad2.1/2.2 [1] | CTGlo-ATS Mean MinResponse % 72 h NCIH1568.1 [2, 6] [%] | GI50 [2, 7] [nM] | CTGlo-ATS Mean MinResponse % 72 h PANC0504.1 [3, 8] [%] | GI50 [3, 9] [nM] | GI50 [2, 10] [nM] | CTGlo-ATS Mean MinResponse % 72 h NCIH1568.1 [2, 11] [%] | CTGlo-ATS Mean MinResponse % 72 h PANC0504.1 [3, 12] [%] | GI50 [3, 13] [nM] | GI50 ([2]; NCI-H1568, 72 h, read-out: CTGlo-ATS GMean GI50 (nM) 72 h NCIH1568.1, 72 h, NCIH1568.1) [nM] | GI50 ([3]; Panc 05.04, 72 h, read-out: CTGlo-ATS GMean GI50 (nM) 72 h PANC0504.1, 72 h, PANC0504.1) [nM] |
| --- | --- | --- | --- | --- | --- | --- | --- | --- | --- | --- | --- | --- | --- | --- |
| C/C(=C\c1cc(F)cc(NC(=O)CC2CC2)c1)[C@H]1OC(=O)C[C@H](O)CC[C@H](C)[C@@H](OC(=O)N2CCN(C)CC2)/C=C/[C@@H]1C [Compound 250, [(2S,3S,4E,6R,7S,10R)-2-[(E)-1-[3-[(2-cyclopropylacetyl)amino]-5-fluorophenyl]prop-1-en-2-yl]-10-hydroxy-3,7-dimethyl-12-oxo-1-oxacyclododec-4-en-6-yl] 4-methylpiperazine-1-carboxylate] | 3.63 | 2190 | 44.1 | 49.517 | −58.677 | 15.6 | −94.381 | 23.1 |  |  |  |  |  |  |
| C/C(=C\c1cc(F)cc(N(C)C2CCN(C)CC2)c1)[C@H]1OC(=O)C[C@H](O)CC[C@H](C)[C@@H](OC(=O)N2CCN(C)CC2)/C=C/[C@@H]1C [Compound 31] | 43.2 | 50.1 | 14.6 |  |  |  |  |  | 89.4 | −98.108 | −90.716 | 53 |  |  |
| C/C(=C\c1cccc(S(=O)(=O)N2CCCC2C)c1)[C@H]1OC(=O)CC(O)CCC(C)[C@@H](OC(=O)N2CCN(C)CC2)/C=C/[C@@H]1C (stereo in doubt) [Compound 200, [(2S,3S,4E,6R,7R,10S)-10-hydroxy-3,7-dimethyl-2-[(E)-1-[3-[(2S)-2-methylpyrrolidin-1-yl]sulfonylphenyl]prop-1-en-2-yl]-12-oxo-1-oxacyclododec-4-en-6-yl] 4-methylpiperazine-1-carboxylate] | 8.03 | 8050 | 27 | 297.600 | −51.281 | 24.2 | −94.085 | 17.4 |  |  |  |  |  |  |
| C/C(=C\c1ccc(C)c(S(=O)(=O)N2CCCC2)c1)[C@H]1OC(=O)C[C@H](O)CC[C@H](C)[C@@H](OC(=O)N2CCN(C)CC2)/C=C/[C@@H]1C [Compound 203, [(2S,3S,4E,6R,7S,10R)-10-hydroxy-3,7-dimethyl-2-[(E)-1-(4-methyl-3-pyrrolidin-1-ylsulfonylphenyl)prop-1-en-2-yl]-12-oxo-1-oxacyclododec-4-en-6-yl] 4-methylpiperazine-1-carboxylate] | 10.1 | 14400 | 69.7 | 207.149 | −36.664 | 47.3 | −94.627 | 45 |  |  |  |  |  |  |
| C/C(=C\c1cc(N2CCOCC2)ccc1F)[C@H]1OC(=O)C[C@H](O)CC[C@H](C)[C@@H](OC(=O)N2CCN(C)CC2)/C=C/[C@@H]1C [Compound 7] | 2.88 | 1250 | 25.1 |  |  |  |  |  | 15.1 | −56.359 | −89.436 | 8.96 |  |  |
| C/C(=C\c1cc(F)c2nn(CC3CC3)nc2c1)[C@H]1OC(=O)C[C@H](O)CC[C@H](C)[C@@H](OC(=O)N2CCN(C)CC2)/C=C/[C@@H]1C [Compound 138] | 8.7 | > 25000 | 57.5 |  |  |  |  |  | 70.3 | −80.330 | −85.916 | 120 |  |  |
| C/C(=C\c1cc(F)cc(N2CCN(C(=O)Cn3cccn3)CC2)c1)[C@H]1OC(=O)C[C@H](O)CC[C@H](C)[C@@H](OC(=O)N2CCN(C)CC2)/C=C/[C@@H]1C [Compound 122] | 5.5 | 18.8 | 14.3 |  |  |  |  |  | 2 | −85.128 | −70.057 | 2.1 |  |  |
| CC(=O)N1CCC(n2nnc3c(F)cc(/C=C(\C)[C@H]4OC(=O)C[C@H](O)CC[C@H](C)[C@@H](OC(=O)N5CCNCC5)/C=C/[C@@H]4C)cc32)CC1 [Compound 253, [(2S,3S,4E,6R,7S,10R)-2-[(E)-1-[3-(1-acetylpiperidin-4-yl)-7-fluorobenzotriazol-5-yl]prop-1-en-2-yl]-10-hydroxy-3,7-dimethyl-12-oxo-1-oxacyclododec-4-en-6-yl] piperazine-1-carboxylate] | 1.92 | 10 | 8.59 | 1.167 | −84.782 |  | −80.763 |  |  |  |  |  | 2.42 | 12.9 |
